The target in one experiment is RBP4 (Homo sapiens (Human), UniProt P02753). Kind of experiment: Scintillation proximity RBP4 binding assay (SPA). The following applies: 10 nM 3H-Retinol, 50 nM biotinylated RBP4. How it is done:
Scintillation Proximity RBP4 Binding Assay
Untagged human RBP4 purified from urine of tubular proteinuria patients was purchased from Fitzgerald Industries International. It was biotinylated using the EZ-Link Sulfo-NHS-LC-Biotinylation kit from Pierce following the manufacturer's recommendations. Binding experiments were performed in 96-well plates (OptiPlate, PerkinElmer) in a final assay volume of 100 μl per well in SPA buffer (1×PBS, pH 7.4, 1 mM EDTA, 0.1% BSA, 0.5% CHAPS). The reaction mix contained 10 nM ^3H-Retinol (48.7 Ci/mmol; PerkinElmer), 0.3 mg/well Streptavidin-PVT beads, 50 nM biotinylated RBP4 and a test compound. Nonspecific binding was determined in the presence of 20 μM of unlabeled retinol.
The reaction mix was assembled in the dark under dim red light. The plates were sealed with clear tape (TopSeal-A: 96-well microplate, PerkinElmer), wrapped in the aluminum foil, and allowed to equilibrate 6 hours at room temperature followed by overnight incubation at +4° C. Radiocounts were measured using a TopCount NXT counter (Packard Instrument Company).
On the technique in general: Scintillation proximity formats need no separation of bound from free tracer.

In the next experiment the target is RBP4-TTR interaction (Homo sapiens (Human), UniProt P02753). The experiment is described as follows: TR-FRET (HTRF) assay for retinol-induced RBP4-TTR interaction. The class given is biochemical. Conditions: in the presence of 1 μM retinol; read-out: HTRF assay for antagonists of RBP4-TTR interaction: IC50. The text has this:
TR-FRET Assay for Retinol-Induced RBP4-TTR Interaction
Binding of a desired RBP4 antagonist displaces retinol and induces hindrance for RBP4-TTR interaction resulting in the decreased FRET signal (FIG. 7). Bacterially expressed MBP-RBP4 and untagged TTR were used in this assay. […] Following cell lysis, recombinant RBP4 was purified from the soluble fraction using the ACTA FPLC system (GE Healthcare) equipped with the 5-ml the MBP Trap HP column. Human untagged TTR was purchased from Calbiochem. Untagged TTR was labeled directly with Eu^3+ Cryptate-NHS using the HTRF Cryptate Labeling kit from CisBio following the manufacturer's recommendations. HTRF assay was performed in white low volume 384 well plates (Greiner-Bio) in a final assay volume of 16 μl per well. The reaction buffer contained 10 mM Tris-HCl pH 7.5, 1 mM DTT, 0.05% NP-40, 0.05% Prionex, 6% glycerol, and 400 mM KF. […] Titration of test compounds in this assay was conducted in the presence of 1 μM retinol. All reactions were assembled in the dark under dim red light and incubated overnight at +4° C. wrapped in aluminum foil. TR-FRET signal was measured in the SpectraMax M5e Multimode Plate Reader (Molecular Device). […] The TR-FRET signal was expressed as the ratio of fluorescence intensity: Flu665/Flu620×10,000.

For orientation: IC50 means the concentration that gives 50% inhibition.

For `COC(=O)N1CCc2[nH]nc(C(=O)N3CCC(c4cccc(F)c4C(F)(F)F)CC3)c2C1` [Compound 68], the IC50 at RBP4 was under 1.37 nM; at RBP4-TTR interaction, 36.2 nM.
